Laboratory results as given in US9283242B2, “Uses of dihydro bases” (priority 2013, dated 2016).
“Also recorded” adds a separate entry of the source.

How the values were obtained:
[1] = test system: HK81 (AlkB+) E. coli cells; assay type: cell-based; settings: HK81; percentage relative to unmodified control genome
Protocol: (A) A 16mer oligonucleotide containing KP1212 (SEQ ID NO: 1) (or controls) at a specific site was chemically synthesized and ligated into the genome of an M13 bacteriophage. (B) The KP1212-containing M13 genomes were replicated within E. coli cells. Progeny were analyzed to characterize the amount and the type of nucleic acid base placed opposite the lesion during replication. The relative reduction in lesion vs. non-lesion competitor progeny formation was used as an estimate of the extent to which KP1212 and m3C inhibited DNA replication. (C) The KP1212-containing M13 genomes were used as templates for in vitro polymerase extension assays, carried out at 72° C., using the high-fidelity DNA polymerase PfuTurbo. (D) Bypass efficiency (CRAB assay) of KP1212, m3C, C in HK81 (AlkB^+) and HK82 (AlkB^−) E. coli cells. m3C and undamaged C were used as controls. Genomes were made and normalized to one another before being combined with a competitor genome. Each mixture was transformed into the corresponding cell strain in triplicate, and bypass efficiency was calculated by using the undamaged C genome as 100% bypass, with error bars representing one standard deviation. (E) Mutagenesis (REAP assay) of KP1212, m3C, and C in HK82 (AlkB^−) E. coli cells. m3C, undamaged C, and an approximately equimolar mixture of genomes carrying unmodified G/A/T/C bases at the site of inquiry (denoted as GATC) were used as controls. Genomes containing the lesions of interest were transfected into E. coli in triplicate.
All E. coli strains used in this work contain the F′ episome, which enables infection by M13 phage. GW5100 strain was used for large scale preparation of M13 phage DNA, SCS 110 (JM110, end Al) was used for amplification of progeny phage post-electroporation, and NR9050 was the strain of choice for double agar plating with X-GAL for blue-clear detection of plaques. The E. coli strains used to replicate lesion-containing phage were HK81 (as AB1157, but nalA) and HK82 (as AB1157, but nalA alkB22; AlkB-deficient).

[2] = Variable temperature 1H NMR, tautomerism in DMF-d7; assay type: physicochemical; settings: for tautomerism by Variable Temperature NMR: DMF-d7, 20 to −60° C.
Protocol: At 20° C., exchangeable protons on the base moiety are observed at 7.58 ppm and 4.14 ppm (FIG. 10). At −60° C., exchangeable protons on the base moiety are observed at 8.70 ppm, 8.08 ppm, and 4.68 ppm (FIG. 11). Protons with a chemical shift of 8.70, 8.08, and 7.58 ppm likely correspond to enolic, amido, or imino protons, while protons with a chemical shift of 4.68 and 4.14 ppm likely correspond to amino protons. The expected chemical shifts for enolic, amido, and imino protons are relatively close, and thus these species cannot be assigned at this stage. […] Only the existence of multiple tautomeric species would explain the presence of three exchangeable protons resonances. […] Based on their chemical structures, the keto-amino tautomer will pair with guanine and the keto-imino/enol-imino tautomers can pair with adenine.
All NMR experiments were performed on Varian 500 MHz NMR spectrometers. The deuterated solvent DMF-d7 was from Cambridge Isotope Laboratories, Andover, Mass., USA. 5-Aza-5,6-dihydro-2′-deoxycytidine (KP1212) nucleoside was from Berry & Associates Inc., Dexter, Mich., USA. The NMR sample was prepared by dissolving 10 mg of KP1212 nucleoside in 1.0 ml DMF-d7 (final concentration ˜44 mM). ^1H NMR spectra were reported in parts per million (ppm) and were referenced to the signals for DMF-d7 (8.03 ppm). ^13C NMR spectra were referenced to the signals for DMF-d7 (163.15 ppm).
FIG. 14A depicts the structures of all five possible tautomers (1 to 5) of KP1212, among which the three active protons on the nucleobase shift among the 02, N3, N4 and N5 positions. […] Before assigning the three active protons on the nucleobase moiety, all non-exchangeable protons in KP1212 and the two hydroxyl protons on the 3′ and 5′ positions were identified by carrying out 1D (^1H and ^13C) and 2D (COSY, HSQC, and HMBC) NMR experiments. The NMR signals of the three active protons in the base portion of KP1212 were studied at different temperatures. […] When the temperature was decreased to −50° C., the three broad peaks resolved into six distinct proton resonances (FIG. 14B, denoted as peaks i-vi), which could be assigned to imino (designated as e and n in FIGS. 14A to 14C), amido (designated as g and m), enolic (designated as c and d) or amino (designated as a, b, f, h, i, j, k, l, and o) protons.
At −50° C. six distinct proton resonances (FIG. 14B, i to vi) were observed, attributable to protons bound either to nitrogen or to oxygen atom (for only the base portion of the KP1212 molecule). Integration of the six broad peaks permitted estimation of the relative ratios of the five tautomeric species that exist in solution (FIG. 14A).
The NMR data also allowed the determination of the relative ratios of the tautomeric species present in the DMF solution at −50° C. (FIGS. 14B and 14C). Several peaks in the NMR spectrum partially overlapped (e.g., iv and v), so the raw data were reconstructed using a least squares fit algorithm (FIG. 16). The reconstructed peaks from the simulation were integrated, yielding an estimate of the relative amounts of each of the proton resonances in the spectrum. […] 2) Based on the peak assignments from part 1), a system of linear equations was set up using the relative amounts of tautomers as unknown variables (FIG. 14D). Each NMR peak provided a linear equation whereby the peak area should be equal to the sum of all tautomers (as relative amounts) containing protons that contribute to that peak. The solutions of these equations yielded the relative ratios of the tautomeric species present in DMF at −50° C. (FIG. 14D).

[3] = −50° C. in DMF, deconvoluted from NMR spectrum

SMILES | Polymerase bypass efficiency, Avg. [1] [%] | tautomerism by Variable Temperature NMR [2] | relative proportion of enol tautomer 1 [2, 3] [%] | relative proportion of enol tautomer 2 [2, 3] [%] | relative proportion of keto tautomers 3 to 5 collectively [2, 3] [%] | tautomerism by Variable Temperature NMR ([2]; listed as deoxycytidine)
NC1=NC(=O)N([C@H]2C[C@H](O)[C@@H](CO)O2)CN1 [KP1212, 5-aza-5,6-dihydro-2′-deoxycytidine] | 128 | shows multiple tautomerism; also recorded: different tautomeric forms | 51 | 38 | 11 | –
Nc1ccn([C@H]2C[C@H](O)[C@@H](CO)O2)c(=O)n1 [dC, deoxycytidine] | 100 | does not show multiple tautomerism; also recorded: single tautomerism | – | – | – | only one tautomeric form; also recorded: no imino or enol tautomer exists
